From ChEMBL document CHEMBL1201861, “Genomics of Drug Sensitity in Cancer screening data, Wellcome Trust Sanger Institute”

Legend:
CAL-148 = experiment: cells; type: functional, cell-based, Homo sapiens; settings: Homo sapiens, CAL-148
Description: SANGER: Inhibition of human CAL-148 cell growth in a cell viability assay.

LB647-SCLC = experiment: cells; type: functional, cell-based, Homo sapiens; settings: Homo sapiens, LB647-SCLC;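 note: cell growth inhibition, read out by a viability assay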
Description: SANGER: Inhibition of human LB647-SCLC cell growth in a cell viability assay.

SK-MM-2 = experiment: cells; type: functional, cell-based, Homo sapiens; settings: Homo sapiens, SK-MM-2;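 note: growth inhibition of human SK-MM-2 cells, read out with a cell viability assay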
Description: SANGER: Inhibition of human SK-MM-2 cell growth in a cell viability assay.

LU-165 = experiment: cells; type: functional, cell-based, Homo sapiens; settings: Homo sapiens, LU-165
Description: SANGER: Inhibition of human LU-165 cell growth in a cell viability assay.

RL = experiment: cells; type: functional, cell-based, Homo sapiens; settings: Homo sapiens, RL
Description: SANGER: Inhibition of human RL cell growth in a cell viability assay.

Kasumi 1 = experiment: cells; type: functional, cell-based, Homo sapiens; settings: Homo sapiens, Kasumi 1;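 note: growth inhibition of human Kasumi-1 cells, read out by a cell viability assay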
Description: SANGER: Inhibition of human KASUMI-1 cell growth in a cell viability assay.

IMR-5 = experiment: cells; type: functional, cell-based, Homo sapiens; settings: Homo sapiens, IMR-5; read-out: IC50;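 note: growth inhibition of human IMR-5 cells, read out with a cell viability assay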
Description: SANGER: Inhibition of human IMR-5 cell growth in a cell viability assay.

MFH-ino = experiment: cells; type: functional, cell-based, Homo sapiens; settings: Homo sapiens, MFH-ino;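 note: growth inhibition of human MFH-ino cells, read out by a cell viability assay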
Description: SANGER: Inhibition of human MFH-ino cell growth in a cell viability assay.

HCC1599 = experiment: cells; type: functional, cell-based, Homo sapiens; settings: Homo sapiens, HCC1599;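 note: growth inhibition of HCC1599 cells, read out in a cell viability assay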
Description: SANGER: Inhibition of human HCC1599 cell growth in a cell viability assay.

NB7 = experiment: cells; type: functional, cell-based, Homo sapiens; settings: Homo sapiens, NB7;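 note: growth inhibition of NB7 cells, read out with a cell viability assay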
Description: SANGER: Inhibition of human NB7 cell growth in a cell viability assay.

NCI-H187 = experiment: cells; type: functional, cell-based, Homo sapiens; settings: Homo sapiens, NCI-H187;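 note: growth inhibition of NCI-H187 cells, read out as cell viability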
Description: SANGER: Inhibition of human NCI-H187 cell growth in a cell viability assay.

IM-9 = experiment: SANGER: Inhibition of human IM-9 cell growth in a cell viability assay.; type: functional, cell-based; settings: Homo sapiens, IM-9
NCI-H1436 = experiment: cells; type: functional, cell-based, Homo sapiens; settings: Homo sapiens, NCI-H1436;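 note: growth suppression of human NCI-H1436 cells, determined with a cell viability readout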
Description: SANGER: Inhibition of human NCI-H1436 cell growth in a cell viability assay.

NCI-H1963 = experiment: cells; type: functional, cell-based, Homo sapiens; settings: Homo sapiens, NCI-H1963;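 note: cell growth inhibition of the human line, determined with a cell viability assay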
Description: SANGER: Inhibition of human NCI-H1963 cell growth in a cell viability assay.

MHH-ES-1 = experiment: cells; type: functional, cell-based; settings: Homo sapiens
Description: SANGER: Inhibition of human MHH-ES-1 cell growth in a cell viability assay.

VMRC-RCZ = experiment: cells; type: functional, cell-based; settings: Homo sapiens
Description: SANGER: Inhibition of human VMRC-RCZ cell growth in a cell viability assay.

T84 = experiment: cells; type: functional, cell-based; settings: Homo sapiens;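 note: growth inhibition measured with a cell viability readout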
Description: SANGER: Inhibition of human T84 cell growth in a cell viability assay.

SW780 = experiment: cells; type: functional, cell-based; settings: Homo sapiens;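 note: growth inhibition of the cells, read out with a cell viability assay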
Description: SANGER: Inhibition of human SW780 cell growth in a cell viability assay.

SAS = experiment: cells; type: functional, cell-based; settings: Homo sapiens;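 note: growth inhibition of SAS cells, read out with a cell viability assay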
Description: SANGER: Inhibition of human SAS cell growth in a cell viability assay.

SW1088 = experiment: cells; type: functional, cell-based; settings: Homo sapiens;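 note: growth inhibition of human SW1088 cells, read out by a cell viability assay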
Description: SANGER: Inhibition of human SW1088 cell growth in a cell viability assay.

SW1573 = experiment: cells; type: functional, cell-based; settings: Homo sapiens;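 note: growth inhibition of SW1573 cells, read out with a cell viability assay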
Description: SANGER: Inhibition of human SW1573 cell growth in a cell viability assay.

HSC-2 = experiment: cells; type: functional, cell-based; settings: Homo sapiens;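 note: growth inhibition of human HSC-2 cells, read out by a cell viability assay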
Description: SANGER: Inhibition of human HSC-2 cell growth in a cell viability assay.

CAL-62 = experiment: cells; type: functional, cell-based; settings: Homo sapiens;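 note: growth inhibition of CAL-62 cells, read out with a cell viability assay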
Description: SANGER: Inhibition of human CAL-62 cell growth in a cell viability assay.

MCF7 = experiment: cells; type: functional, cell-based; settings: Homo sapiens;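 note: growth inhibition of human MCF7 cells, read out with a cell viability assay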
Description: SANGER: Inhibition of human MCF7 cell growth in a cell viability assay.

NCI-H1792 = experiment: cells; type: functional, cell-based; settings: Homo sapiens;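 note: growth inhibition of human NCI-H1792 cells, read out as cell viability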
Description: SANGER: Inhibition of human NCI-H1792 cell growth in a cell viability assay.

MFE-280 = experiment: cells; type: functional, cell-based; settings: Homo sapiens;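 note: growth inhibition of MFE-280 cells, determined with a cell viability readout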
Description: SANGER: Inhibition of human MFE-280 cell growth in a cell viability assay.

CP50-MEL-B = experiment: cells; type: functional, cell-based; settings: Homo sapiens;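 note: growth inhibition of the human cell line, measured with a cell viability read-out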
Description: SANGER: Inhibition of human CP50-MEL-B cell growth in a cell viability assay.

PA-1 = experiment: cells; type: functional, cell-based; settings: Homo sapiens;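 note: IC50 for suppression of PA-1 cell proliferation, determined with a cell viability read-out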
Description: SANGER: Inhibition of human PA-1 cell growth in a cell viability assay.

DK-MG = experiment: cells; type: functional, cell-based; settings: Homo sapiens;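 note: growth inhibition of DK-MG cells, read out with a cell viability assay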
Description: SANGER: Inhibition of human DK-MG cell growth in a cell viability assay.

M14 = experiment: cells; type: functional, cell-based; settings: Homo sapiens;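 note: growth inhibition of M14 cells, read out with a cell viability assay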
Description: SANGER: Inhibition of human M14 cell growth in a cell viability assay.

PANC-08-13 = experiment: cells; type: functional, cell-based; settings: Homo sapiens
Description: SANGER: Inhibition of human PANC-08-13 cell growth in a cell viability assay.

EGI-1 = experiment: cells; type: functional, cell-based; settings: Homo sapiens;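 note: cell viability readout used to gauge growth inhibition of EGI-1 cells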
Description: SANGER: Inhibition of human EGI-1 cell growth in a cell viability assay.

OVCAR-5 = experiment: cells; type: functional, cell-based; settings: Homo sapiens;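 note: growth inhibition of human OVCAR-5 cells, read out with a cell viability assay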
Description: SANGER: Inhibition of human OVCAR-5 cell growth in a cell viability assay.

SW48 = experiment: cells; type: functional, cell-based; settings: Homo sapiens;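 note: growth inhibition of SW48 cells, read out with a cell viability assay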
Description: SANGER: Inhibition of human SW48 cell growth in a cell viability assay.

SCC-4 = experiment: cells; type: functional, cell-based; settings: Homo sapiens;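 note: growth inhibition of human SCC-4 cells, read out as cell viability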
Description: SANGER: Inhibition of human SCC-4 cell growth in a cell viability assay.

OVCAR-3 = experiment: cells; type: functional, cell-based; settings: Homo sapiens;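 note: growth inhibition of human OVCAR-3 cells, determined by a cell viability assay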
Description: SANGER: Inhibition of human OVCAR-3 cell growth in a cell viability assay.

KYSE-450 = experiment: cells; type: functional, cell-based; settings: Homo sapiens;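 note: cell growth inhibition measured by a viability assay in human KYSE-450 cells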
Description: SANGER: Inhibition of human KYSE-450 cell growth in a cell viability assay.

COLO-679 = experiment: cells; type: functional, cell-based; settings: Homo sapiens
Description: SANGER: Inhibition of human COLO-679 cell growth in a cell viability assay.

HCC1937 = experiment: cells; type: functional, cell-based; settings: Homo sapiens;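 note: growth inhibition measured with a cell viability read-out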
Description: SANGER: Inhibition of human HCC1937 cell growth in a cell viability assay.

639-V = experiment: cells; type: functional, cell-based; settings: Homo sapiens;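 note: growth inhibition of 639-V cells, read out with a cell viability assay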
Description: SANGER: Inhibition of human 639-V cell growth in a cell viability assay.

NCI-H292 = experiment: cells; type: functional, cell-based; settings: Homo sapiens;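 note: growth inhibition of NCI-H292 cells, read out with a cell viability assay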
Description: SANGER: Inhibition of human NCI-H292 cell growth in a cell viability assay.

NCI-H2342 = experiment: cells; type: functional, cell-based; settings: Homo sapiens;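 note: growth inhibition of the cancer cell line, determined with a cell viability assay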
Description: SANGER: Inhibition of human NCI-H2342 cell growth in a cell viability assay.

MEL-HO = experiment: cells; type: functional, cell-based; settings: Homo sapiens
Description: SANGER: Inhibition of human MEL-HO cell growth in a cell viability assay.

LK-2 = experiment: cells; type: functional, cell-based; settings: Homo sapiens;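 note: growth inhibition of LK-2 cells, read out with a viability assay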
Description: SANGER: Inhibition of human LK-2 cell growth in a cell viability assay.

8305C = experiment: cells; type: functional, cell-based; settings: Homo sapiens
Description: SANGER: Inhibition of human 8305C cell growth in a cell viability assay.

SW1783 = experiment: cells; type: functional, cell-based; settings: Homo sapiens
Description: SANGER: Inhibition of human SW1783 cell growth in a cell viability assay.

KYSE-270 = experiment: cells; type: functional, cell-based; settings: Homo sapiens;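 note: cell growth inhibition measured with a viability assay in the human KYSE-270 line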
Description: SANGER: Inhibition of human KYSE-270 cell growth in a cell viability assay.

NCI-H2170 = experiment: cells; type: functional, cell-based; settings: Homo sapiens;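 note: cell viability assay measuring growth inhibition of human NCI-H2170 cancer cells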
Description: SANGER: Inhibition of human NCI-H2170 cell growth in a cell viability assay.

NCI-H2122 = experiment: cells; type: functional, cell-based; settings: Homo sapiens;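 note: growth inhibition of the cells, read out with a cell viability assay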
Description: SANGER: Inhibition of human NCI-H2122 cell growth in a cell viability assay.

ESS-1 = experiment: cells; type: functional, cell-based; settings: Homo sapiens;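 note: growth inhibition of human ESS-1 cells, read out by a cell viability assay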
Description: SANGER: Inhibition of human ESS-1 cell growth in a cell viability assay.

CAKI-1 = experiment: cells; type: functional, cell-based; settings: Homo sapiens;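 note: growth inhibition of CAKI-1 cells, measured by a cell viability assay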
Description: SANGER: Inhibition of human CAKI-1 cell growth in a cell viability assay.

KU-19-19 = experiment: cells; type: functional, cell-based; settings: Homo sapiens
Description: SANGER: Inhibition of human KU-19-19 cell growth in a cell viability assay.

MDA-MB-175-VII = experiment: cells; type: functional, cell-based; settings: Homo sapiens
HCC1395 = experiment: cells; type: functional, cell-based; settings: Homo sapiens;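 note: growth inhibition of HCC1395 cells, read out by a cell viability assay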
Description: SANGER: Inhibition of human HCC1395 cell growth in a cell viability assay.

U-251 = experiment: cells; type: functional, cell-based; settings: Homo sapiens;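 note: growth inhibition of human U-251 cells, read out through a cell viability assay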
Description: SANGER: Inhibition of human U251 cell growth in a cell viability assay.

NCI-H810 = experiment: cells; type: functional, cell-based; settings: Homo sapiens;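 note: IC50 reflects inhibition of cancer cell line growth, read out with a cell viability assay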
Description: SANGER: Inhibition of human NCI-H810 cell growth in a cell viability assay.

A-427 = experiment: cells; type: functional, cell-based; settings: Homo sapiens;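 note: growth inhibition of human A-427 cells, read out by a cell viability assay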
Description: SANGER: Inhibition of human A427 cell growth in a cell viability assay.

P12-Ichikawa = experiment: cells; type: functional, cell-based; settings: Homo sapiens
HuP-T3 = experiment: cells; type: functional, cell-based; settings: Homo sapiens;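 note: HuP-T3 cell growth inhibition, read out with a cell viability assay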
Description: SANGER: Inhibition of human HuP-T3 cell growth in a cell viability assay.

RCM-1 = experiment: cells; type: functional, cell-based; settings: Homo sapiens;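 note: growth inhibition of the RCM-1 line, determined with a cell viability readout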
Description: SANGER: Inhibition of human RCM-1 cell growth in a cell viability assay.

SMILES: C=CC(=O)N1CCCC(Nc2nc(Nc3ccc(N(C)C(=O)CC)cc3)nc3[nH]cnc23)C1 (stereo unspecified)
- IC50 (CAL-148): > 10.2 µM
- IC50 (LB647-SCLC): > 10.2 µM
- IC50 (SK-MM-2): > 10.2 µM
- IC50 (LU-165): > 10.2 µM
- IC50 (RL): > 10.2 µM
- IC50 (Kasumi 1): > 10.2 µM
- IC50 (IMR-5): > 10.2 µM
- IC50 (MFH-ino): > 10200 nM
- IC50 (HCC1599): > 10.2 µM
- IC50 (NB7): > 10.2 µM
- IC50 (NCI-H187): > 10.2 µM
- IC50 (IM-9): > 10.2 µM
- IC50 (NCI-H1436): > 10.2 µM
- IC50 (NCI-H1963): > 10.2 µM

SMILES: COc1ccc(N(C(=O)Oc2c(C)cccc2C)c2ccnc(Nc3ccc(N4CCN(C)CC4)cc3)n2)c(OC)c1
- IC50 (CAL-148): > 5.12 µM
- IC50 (LB647-SCLC): > 5.12 µM
- IC50 (SK-MM-2): > 5.12 µM
- IC50 (LU-165): > 5.12 µM
- IC50 (RL): > 5.12 µM
- IC50 (Kasumi 1): > 5.12 µM
- IC50 (IMR-5): > 5.12 µM
- IC50 (MFH-ino): 239 nM
- IC50 (HCC1599): > 5.12 µM
- IC50 (NB7): > 5.12 µM
- IC50 (NCI-H187): > 5.12 µM
- IC50 (IM-9): > 5.12 µM
- IC50 (NCI-H1436): > 5.12 µM
- IC50 (NCI-H1963): > 5.12 µM

SMILES: NC(=O)c1cccc(-c2cc(Nc3ccc(OC(F)(F)F)cc3)ncn2)c1
- IC50 (CAL-148): > 1.28 µM
- IC50 (LB647-SCLC): > 1.28 µM
- IC50 (SK-MM-2): > 1.28 µM
- IC50 (LU-165): > 1.28 µM
- IC50 (RL): > 1.28 µM
- IC50 (Kasumi 1): > 1.28 µM
- IC50 (IMR-5): > 1.28 µM
- IC50 (MFH-ino): > 1280 nM
- IC50 (HCC1599): > 1.28 µM
- IC50 (NB7): > 1.28 µM
- IC50 (NCI-H187): > 1.28 µM
- IC50 (IM-9): > 1.28 µM
- IC50 (NCI-H1436): > 1.28 µM
- IC50 (NCI-H1963): > 1.28 µM

SMILES: NC(=O)Nc1cc(-c2cccc(F)c2)sc1C(=O)N[C@H]1CCCNC1 [AZD-7762]
- IC50 (MHH-ES-1): > 2000 nM
- IC50 (VMRC-RCZ): 906 nM
- IC50 (T84): > 2000 nM
- IC50 (SW780): 1200 nM
- IC50 (SAS): 1270 nM
- IC50 (SW1088): 916 nM
- IC50 (SW1573): 942 nM
- IC50 (HSC-2): 873 nM
- IC50 (CAL-62): 571 nM
- IC50 (MCF7): > 2000 nM
- IC50 (NCI-H1792): 942 nM
- IC50 (MFE-280): > 2000 nM
- IC50 (CP50-MEL-B): > 2000 nM
- IC50 (PA-1): 750 nM
- IC50 (DK-MG): > 2000 nM
- IC50 (M14): 145 nM
- IC50 (PANC-08-13): 661 nM
- IC50 (EGI-1): 1800 nM
- IC50 (OVCAR-5): 139 nM
- IC50 (SW48): 792 nM
- IC50 (SCC-4): 1020 nM
- IC50 (OVCAR-3): 274 nM
- IC50 (KYSE-450): 1050 nM
- IC50 (COLO-679): 90.9 nM
- IC50 (HCC1937): 706 nM
- IC50 (639-V): 1170 nM
- IC50 (NCI-H292): 898 nM
- IC50 (NCI-H2342): > 2000 nM
- IC50 (MEL-HO): 979 nM
- IC50 (Kasumi 1): < 0.00781 µM
- IC50 (LK-2): 1460 nM
- IC50 (MFH-ino): > 2000 nM
- IC50 (8305C): 789 nM
- IC50 (SW1783): 933 nM
- IC50 (KYSE-270): 226 nM
- IC50 (NCI-H2170): 1520 nM
- IC50 (NCI-H2122): 123 nM
- IC50 (ESS-1): 164 nM
- IC50 (CAKI-1): 287 nM
- IC50 (KU-19-19): > 2000 nM
- IC50 (NB7): > 2 µM
- IC50 (MDA-MB-175-VII): > 2000 nM
- IC50 (HCC1395): 271 nM
- IC50 (U-251): > 2000 nM
- IC50 (NCI-H810): > 2000 nM
- IC50 (A-427): 198 nM
- IC50 (P12-Ichikawa): 43.2 nM
- IC50 (HuP-T3): 87.1 nM
- IC50 (RCM-1): 993 nM
